These are literature values, as cited in US20230241051A1, “LONG-ACTING FORMULATIONS” (Janssen Pharmaceutica NV, priority 2020, published 2023).

Common to all, as to conditions: cited from earlier work
The subject of one data set is Mycobacterium leprae.
Data set [1] deals with mycobacterial ATP synthase (Mycobacterium tuberculosis, UniProt P9WPS1+P9WPV7).
For a further data set, the system named is M. tuberculosis.

Chain of mycobacterial ATP synthase (P9WPS1 whole entry, looked up): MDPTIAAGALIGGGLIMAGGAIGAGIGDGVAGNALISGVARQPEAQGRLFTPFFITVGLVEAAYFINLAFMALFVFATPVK
Chain of mycobacterial ATP synthase (P9WPV7 whole entry, looked up): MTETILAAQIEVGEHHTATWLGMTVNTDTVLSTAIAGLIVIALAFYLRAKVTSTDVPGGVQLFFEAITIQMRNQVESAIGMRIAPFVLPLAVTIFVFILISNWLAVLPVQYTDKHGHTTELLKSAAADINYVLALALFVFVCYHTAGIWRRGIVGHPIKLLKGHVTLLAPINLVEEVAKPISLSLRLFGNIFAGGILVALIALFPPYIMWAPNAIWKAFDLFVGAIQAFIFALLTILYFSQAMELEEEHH

In the case of `COc1nc2ccc(Br)cc2cc1[C@@H](c1ccccc1)[C@@](O)(CCN(C)C)c1cccc2ccccc12` [bedaquiline], the results for the “minimal dose killing 99% of bacilli” value with Mycobacterium leprae (M. lepra) and in the data set on M. tuberculosis were less than 5.0 mg/kg/wk and 30 mg/kg/wk, respectively. In the data set on Mycobacterium leprae (mice), the “activity against Mycobacterium leprae” value was “bactericidal”. Further, the “selectivity index for mycobacterial ATP synthase versus eukaryotic mitochondrial ATP synthase” value in data set [1] is reported as “more than 20000”.
